Results published in patent US20200246268A1, “CPZEN COMPOSITIONS AND USES” (PAI Life Sciences Inc., priority 2017, published 2020).
Several values for one entry are separate records, joined by “and”; a condition that tells them apart may be missing. Identical values can stand only once.

What was measured:
porcine stomach mucin = assay: Mucin binding dialysis assay
Protocol: Mucin binding was evaluated using a dialysis assay developed previously (Huang et al., 2015). Briefly, 100 μL of capreomycin, CPZEN-45, or a 50:50 combination of both at 4 mg/mL per drug was suspended in 900 μL Dulbecco's PBS without calcium or magnesium (Lonza, Cat. #17-512F) either with or without 12.5% (wt./vol) porcine stomach mucin (Sigma-Aldrich, Cat. #M1778, type III, bound sialic acid 0.5% to 1.5%, partially purified powder). The resulting mixtures were placed in Spectra/Por dialysis bags (6- to 8-kDa molecular mass cutoff, 32-mm flat width, 20.4-mm diameter; 3.3-ml/cm volume; Spectrum Laboratories, Cat. #132655, Rancho Dominguez, Calif.), with the tube ends closed using standard dialysis bag closures. […] Dialysate samples (200 μl) were collected at 10, 60, 120, and 240 minutes and the antibiotic concentration within each dialysate was determined by HPLC UV/vis analysis. The percentage of each antibiotic detected in the dialysate was calculated relative to the theoretical total concentration based on 400 μg of antibiotic in an 11-ml total volume. […]
Colistin sulfate content was measured via mass spectrometry on an Agilent 6460 Triple Quadrupole LC/MS System with a Waters Cortecs UPLC C18 1.6 2.1×50 mm column.

[1] = Accelerated stability study: assay and related substances by HPLC; type: physicochemical; details: for CPZEN-45 assay by HPLC / Related Substances by HPLC: CPZEN-45 API
Protocol: Drugs were stored either individually as a free-flowing powder, as a 1:1 spray-dried formulation of capreomycin and CPZEN-45 as a free-flowing powder, or as a 1:1 spray-dried formulation in #3 hydroxypropylmethylcellulose (HPMC) capsules. All samples were deposited into 5 mL screw-top glass vials. Samples were collected at the beginning of the study, after 1 week, 1 month, 3 months, and 6 months. HPLC-based methods for detecting CPZEN-45, capreomycin, and degradation products are described in the “Methods” section below.
(§1) Capreomycin and CPZEN-45 content for forced degradation, stability, and impactor studies was measured by RP-HPLC with a Shimadzu system consisting of an SCL-10AVP system controller, two LC-10ADVP pumps, a DGU-14A degasser, SIL-10A autoinjector, and SPD-M10AVP diode array detector. […] All peaks were detected at wavelength 265 nm. Linearity for total capreomycin was obtained between 1 and 75 μg/mL (R^2=0.996) with a limit of detection (LOD) of 0.74 μg/mL. Linearity for CPZEN-45 was obtained between 0.5 and 100 μg/mL (R^2=0.996) with an LOD of 1.03 μg/mL.

[2] = in vivo; cited from earlier work
[3] = type: physicochemical; details: base treatment (0.1 M NaOH, pH=12.8, 72 hours)
Protocol: Prior to evaluating the long-term stability of a spray-dried combination powder, multiple forced degradations on capreomycin and CPZEN-45 were performed before determining the chromatographic profile of treated materials and monitoring absorbance at 265 nm using a Shimadzu RP-HPLC unit. By this method, it was confirmed that it was possible to detect drug degradation as well as any degradants generated.
Forced degradations were performed by subjecting aqueous solutions of non-spray-dried capreomycin or CPZEN-45 at 0.1 mg/mL to multiple conditions (all at 23° C. unless noted otherwise): control (no treatment, 72 hours), acid (0.1 M HCl, pH=1.2, 72 hours), base (0.1 M NaOH, pH=12.8, 72 hours), oxidizer (3% w/v 2Na2CO3 3H2O2 (sodium percarbonate), 72 hours), 60° C. for 72 hours, or 90° C. for 30 minutes.
as §1, with “1.03 μg/mL. […]” for “1.03 μg/mL.”

[4] = 40° C./75% RH table, T = 3 MON, footnote: due to melting values after month 3 are 30° C./60% RH
[5] = 40° C./75% RH table, T = 6 MON, footnote: due to melting values after month 3 are 30° C./60% RH

colistin sulfate
Percentage of efflux in the presence of mucin relative to samples without mucin (porcine stomach mucin; after 4 hours, drug alone, 12.5% porcine stomach mucin, 37° C.): 20%

CCCCc1ccc(NC(=O)C2=CCN(C)[C@@H]([C@H](O[C@@H]3O[C@H](CN)[C@@H](O)[C@H]3O)[C@H]3O[C@@H](n4ccc(=O)[nH]c4=O)[C@H](O)[C@@H]3O)C(=O)N2C)cc1 [CPZEN-45]
Percentage of efflux in the presence of mucin relative to samples without mucin (porcine stomach mucin; not told): 48% | Stability in accelerated stability studies [1]: highly stable | CPZEN-45 assay by HPLC ([1]; 25° C./60% RH, T = 0, replicates 1-3 and average ± RSD): 98.1% and 98.0% and 95.3% | Related Substances by HPLC ([1]; 25° C./60% RH, T = 1 MON, replicates 1-3 and average): 0.7% | CPZEN-45 assay by HPLC ([1]; 25° C./60% RH, T = 1 MON, replicates 1-3 and average ± RSD): 100.7% and 98.0% and 99.5% | Related Substances by HPLC ([1]; 25° C./60% RH, T = 1 WEEK, replicates 1-3 and average): 0.4% | CPZEN-45 assay by HPLC ([1]; 25° C./60% RH, T = 1 WEEK, replicates 1-3 and average ± RSD): 96.2% and 95.8% and 97.1% | Related Substances by HPLC ([1]; 25° C./60% RH, T = 3 MON, replicates 1-3 and average): 0.4% and 0.6% | CPZEN-45 assay by HPLC ([1]; 25° C./60% RH, T = 3 MON, replicates 1-3 and average ± RSD): 98.0% and 103.2% | Related Substances by HPLC ([1]; 25° C./60% RH, T = 6 MON, replicates 1-3 and average): 0.8% | CPZEN-45 assay by HPLC ([1]; 25° C./60% RH, T = 6 MON, replicates 1-3 and average ± RSD): 97.2% and 98.4% and 97.1% | CPZEN-45 assay by HPLC [1, 4]: 97.2% and 101.0% and 102.8% | Related Substances by HPLC [1, 4]: 0.6% and 0.8% | CPZEN-45 assay by HPLC [1, 5]: 96.5% and 98.0% and 97.5% | Related Substances by HPLC [1, 5]: 1.4% and 1.2% | CPZEN-45 assay by HPLC ([1]; 40° C./75% RH, T = 0, replicates 1-3 and average ± RSD): 98.1% and 98.0% and 95.3% | Related Substances by HPLC ([1]; 40° C./75% RH, T = 1 MON, replicates 1-3 and average): 2.5% and 1.8% and 2.0% | CPZEN-45 assay by HPLC ([1]; 40° C./75% RH, T = 1 MON, replicates 1-3 and average ± RSD): 100.3% and 96.0% and 94.4% | Related Substances by HPLC ([1]; 40° C./75% RH, T = 1 WEEK, replicates 1-3 and average): 0.5% | CPZEN-45 assay by HPLC ([1]; 40° C./75% RH, T = 1 WEEK, replicates 1-3 and average ± RSD): 96.1% and 96.4% and 95.9% | Oral availability [2]: not orally available due to poor absorption from the gastrointestinal tract | Loss of the original mass of intact compound [3]: approximately 88%
